Among the data in BindingDB's records for patent US12479845 (Hanmi Pharm. Co., 2025) are IC50 values, retold here.

This test deals with Lysine-specific histone demethylase 1A (Homo sapiens, UniProt O60341). Description: Biochemical Analysis of LSD1 Histone Demethylase Inhibitor. Here is the method:
The biochemical inhibition activity of the synthesized compounds on LSD1 was measured. The activity measurement was performed using LSD1 fluorescence analysis kit (available from BPS Bioscience Co., Ltd., Catalog No: 50106). This analysis kit is designed to measure activity of LSD1 enzyme. H2O2 generated upon demethylation of Lys4 moiety of histone H3 by LSD1 is reacted with HRP/Amplex Red reagent to form fluorescent Resorufin, which is measured by this kit, thereby confirming demethylation.

Regarding `CCN(CC)c1ccc(-n2c(-c3ccc(C#N)c(F)c3)nc3c(N4CCC[C@@H](N)C4)ccnc32)cc1` [US12479845, Example 21], 27 nM corresponded to half-maximal inhibition (IC50).

Usually IC50 stands for the point on the concentration scale where inhibition reaches its midpoint. A higher IC50 goes with lower potency.
